One series concerns the target T1, recombinant human MetAP2 (Homo sapiens, UniProt P50579).
T1 construct: Flag; made in house
Briefly: Inhibition of recombinant human MetAP2 activity (MAS peptide / amino acid oxidase / Amplex assay). In kind it is biochemical. Here is the method: Compounds are tested for their capacity to inhibit recombinant human MetAP2 activity using the following assay.
Flag tagged Human recombinant MetAP2 expressed and isolated for use as the enzyme source. 10 mM stock solutions of compounds were prepared in 100% DMSO and further diluted in 100% DMSO required concentration to 1 mM stocks. The stock compound solutions and DMSO vehicle controls were diluted to target final compound concentrations using assay buffer to a final concentration of 50 mM HEPES containing 100 mM NaCl, pH adjusted to 7.5. The MAS peptide was formulated to a 7.5 mM stock in distilled water and prior to use further diluted 1:4. […] 40 μl of enzyme was mixed with 100 μl of MnCl2 then further diluted in assay buffer to a final concentration of 16 μg/ml. To test for compound effect on MetAP2 enzyme activity, 5 μl of test compound, 10 μl of MAS substrate/amino acid oxidase mixture, 10 μl of MetAP2 was added to test wells in a 384 well black plate with blank wells containing no enzyme, replaced with 10 μl of assay buffer. All compounds were tested in duplicate on two occasions on the same day.
The plate was sealed with a TopSeal A cover and mixed briefly on an orbital mixer at 900 rpm. The plate was incubated for a further 25 minutes at 25° C. A 5× stock of Amplex buffer was prepared (0.25M sodium phosphate, pH 7.4) and stored at 4° C. When preparing for use the stock was diluted with distilled water. […] Horse radish peroxidase was diluted in […] of Amplex buffer, 100 μl of this was combined with 50 μl of Amplex Ultrared in […] of 1× Amplex buffer to generate sufficient detection reagent for a 384 well plate. 25 μl detection reagent was added to each well of the test plate, which was re-sealed and mixed briefly on an orbital shaker. The plate was transferred to an Envision Multi-label reader and RFU measured corresponding to excitation 531 nm and emission 595 nm. At the end of the MetAP2 incubation 25 μl Amplex/HRP mixture per well was added and the plate read plate on a plate reader.

Series [1] has as its system pregnant Sprague Dawley rats (embryo/fetal development). Nature of the series: Rat embryofetal development study. As to conditions: 6 mpk subcutaneously once every three days, Gestation Days 6-18, pregnant rats. In kind it is in vivo. An excerpt: Study Summary Rat Embryofetal:
The objective of this study design was to evaluate the potential effects of disclosed compounds on embryo/fetal development when given subcutaneously to pregnant rats once every three days during the critical period of organogenesis (Gestation Days 6-18). Female, Sprague Dawley rats, approximately 10 weeks of age, time bred, were ordered from a certified vendor and housed individually housed in stainless steel cages suspended over flush pans, on a 12-hour light-dark cycle (0700-1900) at 20-26° C. and 30-70% humidity. Rats were fed a standard rodent chow and provided water ad libitum. Rats were received and housed in the facility for a period of approximately 1 to 2 days.
Compounds were formulated using 100% DMSO mixed in Sterile Water for Injection, resulting in 2% DMSO solution in water. If necessary, due to limited solubility of a test article, a higher percentage of DMSO solution in water was used. Groups of 8 mated and presumed pregnant female rats were given subcutaneous doses of vehicle or test article, once every three days, beginning on Gestation Day 6 and ending on Gestation Day 18 (Days 6, 9, 12, 15, and 18), maintained two more days, and then euthanized and necropsied on Gestation Day 20. Body weights was recorded for all animals on Gestation Days 5 (purpose of randomization), 6, 9, 12, 15, 18, and 20 (scheduled euthanasia). Food consumption by weight was recorded on Gestation Days 6, 9, 12, 15, 18, and 20 (scheduled termination).
At necropsy, the dams were examined visually for external abnormalities including palpable masses. The abdominal, thoracic, and cranial cavities and their contents were examined for abnormalities and findings will be recorded. The reproductive tract were examined to record the number of ovarian corpora lutea, the number and location of uterine implantation sites noting the position of the cervix, and the number of early resorptions, late resorptions, live fetuses, and dead fetuses. For dead fetuses and late resorptions, crown-to-rump length and weight were recorded, if possible, and the fetus was discarded. For viable fetuses, weight, sex, and grossly visible external abnormalities were recorded.

The subject of series [2] is rat DIO model (Sprague Dawley rats on high fat diet). Briefly: 11 day rat DIO model, weight loss vs. vehicle. In kind it is in vivo. As to conditions: for Rat @ 1.0 mpk sc (%): 1.0 mpk sc once a day for 11 days; for inhibition in vivo at 0.3 mg/kg: Rattus norvegicus, 264 h, 0.3 mpk sc once a day for 11 days. An excerpt:
The objective of this study design is to investigate the efficacy of disclosed compounds in an 11 day rat DIO model used to screen compounds for pharmacologic efficacy on endpoints related to obesity and metabolism. Effects on body weight, food intake, hematology and blood chemistries were the primary readouts of this study design. Male Sprague Dawley rats, approximately 8 weeks of age, were ordered from a certified vendor and housed on irradiated corncob bedding in micro-isolator cages, on a 12-hour light-dark cycle (0700-1900) at 68-74° F. and 30-70% humidity. Rats were fed Research Diets D12451 (45% High Fat) and provided water ad libitum. Rats were received and housed in the facility for at least two or three weeks prior to start of test article administration. On Day −4 or −3, rats were randomized into study groups based on body weight and body weights were continued to be recorded daily for the duration of the study. Daily food intake was assessed starting on Study Day −2 by weighing the hopper including the food to avoid loss of food in transfer.
Compounds were formulated into a 100% DMSO stock (at 9 mg/mL) prior to the start, and further diluted into the target working concentration using the vehicle of 10% DMSO in water. Prior to test article administration, starting on Day −3 a dosing acclimation occured with all animals receiving a subcutaneous injection of vehicle (10% DMSO) only for 3 days. Starting on Day 1, test compounds or vehicle were administered based on individual body weight, subcutaneously, once a day for 11 days. All animals were sacrificed on Day 11, approximately 2 hours following the final dosing on Day 11. After sacrifice, whole blood was collected and analyzed for hematology and blood chemistry parameters.
Compounds were tested for weight loss vs. vehicle at 0.3 and 1.0 mpk sc (mg per kg animal weight delivered subcutaneously), and the results are shown in Table 2 below.

In series [3] the test system is Diet Induced Obese (DIO) C57BL/6 mice. Nature of the series: 10 day DIO mouse model, weight loss vs. vehicle. To be noted: 240 h, 0.3 mpk sc once a day for 10 days. The series is classed as in vivo.
Setting [4] is: Flag tagged human recombinant MetAP2, 25 minutes at 25° C., read-out: MetAP2 IC50.

SMILES strings stand for the structures. pIC50: −log10 of the molar value. Counter-ions that a name gives are not always drawn. Like-named read-outs stand apart in the source and are kept apart here. A value given as a limit tells only on which side of the number the result lay.

A word on the pIC50: it is the negative decadic logarithm of the IC50, by convention in mol/L. Broadly, the inhibition in vivo is the percentage by which the read-out fell short of the control. A higher inhibition in vivo goes with strong suppression.

T1 sequence (P50579 whole entry): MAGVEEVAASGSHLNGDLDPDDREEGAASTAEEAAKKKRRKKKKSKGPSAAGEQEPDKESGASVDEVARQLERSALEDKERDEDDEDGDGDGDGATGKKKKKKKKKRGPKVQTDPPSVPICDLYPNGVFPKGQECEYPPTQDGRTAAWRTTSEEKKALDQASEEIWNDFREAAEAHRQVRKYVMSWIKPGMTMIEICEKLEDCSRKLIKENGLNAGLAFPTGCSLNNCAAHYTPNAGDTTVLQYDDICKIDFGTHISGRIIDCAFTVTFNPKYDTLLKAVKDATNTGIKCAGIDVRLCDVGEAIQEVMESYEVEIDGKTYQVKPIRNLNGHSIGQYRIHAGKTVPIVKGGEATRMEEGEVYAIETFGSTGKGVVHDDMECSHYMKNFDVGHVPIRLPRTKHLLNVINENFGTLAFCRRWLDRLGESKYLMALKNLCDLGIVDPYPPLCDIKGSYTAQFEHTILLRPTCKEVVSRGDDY

Take `CO[C@@H]1[C@H](OC(=O)N2CC3(COC3)C2)CC[C@]2(CO2)[C@H]1[C@@]1(C)O[C@@H]1CC=C(C)C` [Example 2, (3R,4S,5S,6R)-5-methoxy-4-((2R,3R)-2-methyl-3-(3-methylbut-2-enyl)oxiran-2-yl)-1-oxaspiro[2.5]octan-6-yl 2-oxa-6-azaspiro[3.3]heptane-6-carboxylate]: the negative-log IC50 (pIC50) at recombinant human MetAP2 (setting [4]) was above 7.30. Also, the “Rat Embryofetal @6 mpk” value in series [1] is on record as “Positive”. In addition, in series [2], the “Rat @ 1.0 mpk sc (%)” value worked out at 10.2% and the inhibition in vivo at 0.3 mg/kg was determined as 8%. 0.3 mg/kg produced 11.1% inhibition in vivo in series [3].

With `CO[C@@H]1[C@H](OC(=O)N2CC3(CCOCC3)C2)CC[C@]2(CO2)[C@H]1[C@@]1(C)O[C@@H]1CC=C(C)C` [Example 3, (3R,4S,5S,6R)-5-methoxy-4-((2R,3R)-2-methyl-3-(3-methylbut-2-enyl)oxiran-2-yl)-1-oxaspiro[2.5]octan-6-yl 7-oxa-2-azaspiro[3.5]nonane-2-carboxylate], at recombinant human MetAP2 (setting [4]), the pIC50 is above 7.30. The inhibition in vivo at 0.3 mg/kg in series [2] turned out to be 7.9%; in series [3] it was 18.9%.

In the case of `CO[C@@H]1[C@H](OC(=O)N2CCC3(CC2)COC3)CC[C@]2(CO2)[C@H]1[C@@]1(C)O[C@@H]1CC=C(C)C` [Example 5, (3R,4S,5S,6R)-5-methoxy-4-((2R,3R)-2-methyl-3-(3-methylbut-2-enyl)oxiran-2-yl)-1-oxaspiro[2.5]octan-6-yl 2-oxa-7-azaspiro[3.5]nonane-7-carboxylate], the negative-log IC50 (pIC50) on recombinant human MetAP2 was above 7.30. Besides, the inhibition in vivo at 0.3 mg/kg in series [2] stood at 6.6%; in series [3], 16.7%.

`CO[C@@H]1[C@H](OC(=O)N2CC3(CCOC3)C2)CC[C@]2(CO2)[C@H]1[C@@]1(C)O[C@@H]1CC=C(C)C` [Example 6, (3R,4S,5S,6R)-5-methoxy-4-((2R,3R)-2-methyl-3-(3-methylbut-2-enyl)oxiran-2-yl)-1-oxaspiro[2.5]octan-6-yl 6-oxa-2-azaspiro[3.4]octane-2-carboxylate]: on recombinant human MetAP2 (setting [4]), the pIC50 is above 7.30. Also, the inhibition in vivo at 0.3 mg/kg in series [2] is 2.7%; in series [3], 13.9%.

With `CO[C@@H]1[C@H](OC(=O)N2CC3(CCN(CC(F)F)CC3)C2)CC[C@]2(CO2)[C@H]1[C@@]1(C)O[C@@H]1CC=C(C)C` [Example 9, (3R,4S,5S,6R)-5-methoxy-4-((2R,3R)-2-methyl-3-(3-methylbut-2-enyl)oxiran-2-yl)-1-oxaspiro[2.5]octan-6-yl 7-(2,2-difluoroethyl)-2,7-diazaspiro[3.5]nonane-2-carboxylate formate], the pIC50 at recombinant human MetAP2 (setting [4]) was 6.30 to 7.30. In addition, the “Rat Embryofetal @6 mpk” value in series [1] is reported as “Positive”. The same compound came in with an inhibition in vivo at 0.3 mg/kg in series [3] of 21.5%.

As for `CO[C@@H]1[C@H](OC(=O)NC2CC3(C2)CN(C)C3)CC[C@]2(CO2)[C@H]1[C@@]1(C)O[C@@H]1CC=C(C)C` [Example 10, (3R,4S,5S,6R)-5-methoxy-4-((2R,3R)-2-methyl-3-(3-methylbut-2-enyl)oxiran-2-yl)-1-oxaspiro[2.5]octan-6-yl 2-methyl-2-azaspiro[3.3]heptan-6-ylcarbamate formate], the negative logarithm of the IC50 (pIC50) at recombinant human MetAP2 (setting [4]) was above 7.30. Besides, in series [2], the “Rat @ 1.0 mpk sc (%)” value stood at 7.2% and the inhibition in vivo at 0.3 mg/kg amounted to 2%. This compound had an inhibition in vivo at 0.3 mg/kg in series [3] of 8.4%.

Regarding `CO[C@@H]1[C@H](OC(=O)N2C[C@H]3CN(CC(F)F)C[C@H]3C2)CC[C@]2(CO2)[C@H]1[C@@]1(C)O[C@@H]1CC=C(C)C` [Example 19, (3aR,6aS)-((3R,4S,5S,6R)-5-methoxy-4-((2R,3R)-2-methyl-3-(3-methylbut-2-enyl)oxiran-2-yl)-1-oxaspiro[2.5]octan-6-yl) 5-(2,2-difluoroethyl)hexahydropyrrolo[3,4-c]pyrrole-2(1H)-carboxylate], the negative logarithm of the IC50 (pIC50) on recombinant human MetAP2 (setting [4]) was 6.30 to 7.30. Also, the figures for the inhibition in vivo at 0.3 mg/kg in series [2] and in series [3] were 7.6% and 22.6%, respectively.

As to `CO[C@@H]1[C@H](OC(=O)N2CC3C(C2)C3(F)F)CC[C@]2(CO2)[C@H]1[C@@]1(C)O[C@@H]1CC=C(C)C` (stereo partly drawn) [Example 22, (3R,4S,5S,6R)-5-methoxy-4-((2R,3R)-2-methyl-3-(3-methylbut-2-enyl)oxiran-2-yl)-1-oxaspiro[2.5]octan-6-yl 6,6-difluoro-3-azabicyclo[3.1.0]hexane-3-carboxylate], on recombinant human MetAP2 (setting [4]), the negative logarithm of the IC50 (pIC50) is above 7.30. In addition, the “Rat Embryofetal @6 mpk” value in series [1] was “Negative”. Moreover, in series [3], the inhibition in vivo at 0.3 mg/kg was found to be 15.5%.

For the compound `CO[C@@H]1[C@H](OC(=O)N2CCC3(CCOC3)CC2)CC[C@]2(CO2)[C@H]1[C@@]1(C)O[C@@H]1CC=C(C)C` [Example 24, (3R,4S,5S,6R)-5-methoxy-4-((2R,3R)-2-methyl-3-(3-methylbut-2-enyl)oxiran-2-yl)-1-oxaspiro[2.5]octan-6-yl 2-oxa-8-azaspiro[4.5]decane-8-carboxylate], the negative logarithm of the IC50 (pIC50) on recombinant human MetAP2 (setting [4]) is 6.30 to 7.30. Also, the inhibition in vivo at 0.3 mg/kg turned out to be 6.3% in series [2] and 20.5% in series [3].

Regarding `CO[C@@H]1[C@H](OC(=O)N2CCC3(CCOCC3)C2)CC[C@]2(CO2)[C@H]1[C@@]1(C)O[C@@H]1CC=C(C)C` [Example 27, (3R,4S,5S,6R)-5-methoxy-4-((2R,3R)-2-methyl-3-(3-methylbut-2-enyl)oxiran-2-yl)-1-oxaspiro[2.5]octan-6-yl 8-oxa-2-azaspiro[4.5]decane-2-carboxylate], the negative logarithm of the IC50 (pIC50) at recombinant human MetAP2 (setting [4]) is 6.30 to 7.30. In addition, in series [1], the “Rat Embryofetal @6 mpk” value is “Positive”. Further, in series [3], testing at 0.3 mg/kg gave an inhibition in vivo of 16.3%.

The values above are taken from US9944613B2, “Fumagillol spirocyclic compounds and fused bicyclic compounds and methods of making and using same” (Zafgen, Inc., priority 2015, dated 2018).
